Measurements from patent US4443475A, “Amides of acyl-carnitines, process for preparing same and pharmaceutical compositions containing such amides” (priority 1979, dated 1984).

Test system: not listed separately
Experiment: Effect antagonizing adrenaline (mortality)
Assay type: in vivo
Conditions: Mus musculus, ip; mice, 50 mg/kg i.p., 36 hours; read-out: Antiadrenaline Effects, % mortality reduction
Method: (d) Effect antagonizing adrenaline
Male Albino Swiss mice weighing 12-22 g, divided into groups of 10, were treated with the compounds under investigation or with saline (controls) i.p. and then 30 minutes later with adrenaline (treated) at a dose capable of causing death in 100% of the control animals due to ventricular fibrillation and cardiac lesions ensuing from increased heart rate, pressure and oxygen consumption by the myocardium.
Mortality was monitored for 36 hours and the effect of the compounds was expressed in % of survivals versus treated animals.

SMILES	responders at 50 mg/kg
COC(=O)C(NC(=O)CC(C[N+](C)(C)C)OC(C)=O)C(C)C (centres unmarked)	80%
COC(=O)C(CC(C)C)NC(=O)CC(C[N+](C)(C)C)OC(C)=O (centres unmarked)	75%
CCC(=O)OC(CC(=O)NC(C(=O)OC)C(C)C)C[N+](C)(C)C (centres unmarked)	40%

Same assay, conditions: Mus musculus, ip; mice, 70 mg/kg i.p., 36 hours; read-out: Antiadrenaline Effects, % mortality reduction

SMILES	responders at 70 mg/kg
CCOC(=O)CC(O)CNC(=O)CC(C[N+](C)(C)C)OC(C)=O (centres unmarked)	60%
CCC(=O)OC(CC(=O)NC(CCC(=O)OC)C(=O)OC)C[N+](C)(C)C (centres unmarked)	40%

Same assay, conditions: Mus musculus, ip; mice, 100 mg/kg i.p., 36 hours; read-out: Antiadrenaline Effects, % mortality reduction

SMILES	responders at 100 mg/kg
CCC(C)C(NC(=O)CC(C[N+](C)(C)C)OC(C)=O)C(=O)OC (centres unmarked)	50%
CCC(=O)OC(CC(=O)NC(C(=O)OC)C(C)CC)C[N+](C)(C)C (centres unmarked)	50%

Test system: not listed separately
Experiment: Anti-arrhythmic (antifibrillation) effect, aconitine-induced arrhythmia
Assay type: in vivo, mice
Conditions: Mus musculus, ip, read-out: Antifibrillation Effects, % reduction
Method: (c) Anti-arrhythmic effect
In order to evaluate by means of in vivo test the anti-arrhythmic effect exerted by the various carnitine derivatives in addition to and versus the usual in vitro tests, the method described by Nwangwu et al. (Arch. Int. Pharmacodyn., 1977, v. 229, 219) was employed.
This method is carried out by injecting a solution of aconitine into the caudal […] and recording the time of the appearance of arrhythmia and tachycardia from 2 to 60 minutes following the administration of the compounds under investigation.

SMILES	inhibition in vivo at 40 mg/kg	inhibition in vivo at 50 mg/kg	inhibition in vivo at 35 mg/kg	inhibition in vivo at 10 mg/kg
CCC(C)C(NC(=O)CC(C[N+](C)(C)C)OC(C)=O)C(=O)OC (centres unmarked)	65%			
COC(=O)C(NC(=O)CC(C[N+](C)(C)C)OC(C)=O)C(C)C (centres unmarked)		100%		
COC(=O)C(CC(C)C)NC(=O)CC(C[N+](C)(C)C)OC(C)=O (centres unmarked)		70%		
CCOC(=O)CC(O)CNC(=O)CC(C[N+](C)(C)C)OC(C)=O (centres unmarked)		65%		
CCC(=O)OC(CC(=O)NC(C(=O)OC)C(C)CC)C[N+](C)(C)C (centres unmarked)		65%		
CCC(=O)OC(CC(=O)NC(C(=O)OC)C(C)C)C[N+](C)(C)C (centres unmarked)			60%	
CCC(=O)OC(CC(=O)NC(CCC(=O)OC)C(=O)OC)C[N+](C)(C)C (centres unmarked)				60%

Test system: isolated rabbit heart
Experiment: Inotropic effect on isolated rabbit heart (Langendorff) after anoxia
Conditions: Oryctolagus cuniculus, 10 min; 10^-5 gl^-1, isolated rabbit heart, 10 minutes after end of anoxia; read-out: Inotropic Effect, % of controls (increased percentage versus controls)
Method: Rabbit hearts isolated by Langendorff's method were perfused in a Ringer solution oxygenated at 38.2° C. The isometric […], ECG and coronary flow were recorded using a "Battaglia-Rangoni" polygraph.
Metabolic damage in the heart muscle was induced by removing the oxygen from the perfusion liquid until contractile force was reduced by 80%.
In these conditions of prolonged anoxia myocardial […] glycolysis was slowed down, accompanied by accumulation of catabolic acids due to storage of pyruvic acid and its conversion to lactic acid which cannot be utilized owing to the depression of the pyridinic enzymes, such as lacticodehydrogenase. This affects anaerobic glycolysis involving an ever increasing number of enzymes, with a progressive and increasingly more critical exhaustion of the myocardium.
Thus there is a whole series of cardiac muscle fatigue levels recorded by the pattern of the parameters taken into account i.e. contractile force, coronary output, heart rate and cardiac rhythm. As soon as the contractile force was reduced by 80%, the perfusion liquid was once again oxygenated without adding other compounds (controls) or with the addition of the compounds under investigation at various concentrations.

SMILES	activation at 0.01 µg/mL
CCC(C)C(NC(=O)CC(C[N+](C)(C)C)OC(C)=O)C(=O)OC (centres unmarked)	45%
COC(=O)C(NC(=O)CC(C[N+](C)(C)C)OC(C)=O)C(C)C (centres unmarked)	70%
COC(=O)C(CC(C)C)NC(=O)CC(C[N+](C)(C)C)OC(C)=O (centres unmarked)	45%
CCOC(=O)CC(O)CNC(=O)CC(C[N+](C)(C)C)OC(C)=O (centres unmarked)	53%
CCC(=O)OC(CC(=O)NC(C(=O)OC)C(C)CC)C[N+](C)(C)C (centres unmarked)	65%
CCC(=O)OC(CC(=O)NC(C(=O)OC)C(C)C)C[N+](C)(C)C (centres unmarked)	65%
CCC(=O)OC(CC(=O)NC(CCC(=O)OC)C(=O)OC)C[N+](C)(C)C (centres unmarked)	45%

Test system: not listed separately
Experiment: Antagonism to cardiazol (protection from death by convulsions)
Assay type: in vivo
Conditions: ip; rat, 35 mg/kg i.p. (head), 5 hours

SMILES	responders at 35 mg/kg
CCC(=O)OC(CC(=O)NC(C(=O)OC)C(C)C)C[N+](C)(C)C (centres unmarked)	38%

Same assay, conditions: ip; rat, 50 mg/kg i.p. (head), 5 hours

SMILES	responders at 50 mg/kg
CCC(=O)OC(CC(=O)NC(C(=O)OC)C(C)CC)C[N+](C)(C)C (centres unmarked)	39%
CCC(=O)OC(CC(=O)NC(CCC(=O)OC)C(=O)OC)C[N+](C)(C)C (centres unmarked)	47%

Same assay, conditions: ip; rat, 100 mg/kg i.p. (head), 5 hours

SMILES	responders at 100 mg/kg
CCC(C)C(NC(=O)CC(C[N+](C)(C)C)OC(C)=O)C(=O)OC (centres unmarked)	53%
COC(=O)C(NC(=O)CC(C[N+](C)(C)C)OC(C)=O)C(C)C (centres unmarked)	84%

Same assay, conditions: ip; rat, 150 mg/kg i.p. (head), 5 hours

SMILES	responders at 150 mg/kg
COC(=O)C(CC(C)C)NC(=O)CC(C[N+](C)(C)C)OC(C)=O (centres unmarked)	60%
CCOC(=O)CC(O)CNC(=O)CC(C[N+](C)(C)C)OC(C)=O (centres unmarked)	70%

Test system: not listed separately
Experiment: Acute toxicity (LD50), Weil method
Conditions: mouse, in vivo, ip, mice (Table I title); read-out: LD50 i.p.

SMILES	LD50
CCC(C)C(NC(=O)CC(C[N+](C)(C)C)OC(C)=O)C(=O)OC (centres unmarked)	500 mg/kg
COC(=O)C(NC(=O)CC(C[N+](C)(C)C)OC(C)=O)C(C)C (centres unmarked)	600 mg/kg
COC(=O)C(CC(C)C)NC(=O)CC(C[N+](C)(C)C)OC(C)=O (centres unmarked)	1000 mg/kg
CCOC(=O)CC(O)CNC(=O)CC(C[N+](C)(C)C)OC(C)=O (centres unmarked)	450 mg/kg
CCC(=O)OC(CC(=O)NC(C(=O)OC)C(C)CC)C[N+](C)(C)C (centres unmarked)	750 mg/kg
CCC(=O)OC(CC(=O)NC(C(=O)OC)C(C)C)C[N+](C)(C)C (centres unmarked)	500 mg/kg
CCC(=O)OC(CC(=O)NC(CCC(=O)OC)C(=O)OC)C[N+](C)(C)C (centres unmarked)	400 mg/kg

Same assay, conditions: mouse, in vivo; oral, mice (Table I title); read-out: LD50 oral

SMILES	LD50
CCC(C)C(NC(=O)CC(C[N+](C)(C)C)OC(C)=O)C(=O)OC (centres unmarked)	1200 mg/kg
COC(=O)C(NC(=O)CC(C[N+](C)(C)C)OC(C)=O)C(C)C (centres unmarked)	2400 mg/kg
COC(=O)C(CC(C)C)NC(=O)CC(C[N+](C)(C)C)OC(C)=O (centres unmarked)	3500 mg/kg
CCOC(=O)CC(O)CNC(=O)CC(C[N+](C)(C)C)OC(C)=O (centres unmarked)	1300 mg/kg
CCC(=O)OC(CC(=O)NC(C(=O)OC)C(C)CC)C[N+](C)(C)C (centres unmarked)	2500 mg/kg
CCC(=O)OC(CC(=O)NC(C(=O)OC)C(C)C)C[N+](C)(C)C (centres unmarked)	1350 mg/kg
CCC(=O)OC(CC(=O)NC(CCC(=O)OC)C(=O)OC)C[N+](C)(C)C (centres unmarked)	1200 mg/kg

Test system: not listed separately
Experiment: Effect on spontaneous motility (ANIMEX)
Assay type: in vivo
Conditions: Mus musculus, ip, 0.5 h; mice, 25 mg/kg i.p.; control 850 ± 65 in 30 min; read-out: Spontaneous motility, % increase versus controls
Method: (g) Effect on spontaneous motility
Male Albino Swiss mice weighing 18-22 g, were divided into two groups of 5 and caged for at least 1 week. One group received the compounds under investigation and the other group (control group) was given the vehicle. The animals remained in their cages and were placed on the ANIMEX (Farad-Sweden) apparatus which recorded the movements for two 30-minute intervals beginning from 5 minutes after administration of the compounds.
Table II gives the results expressed as percentage variation in the number of spontaneous movements of the treated animals versus those of the control animals.

SMILES	change in vivo at 25 mg/kg
CCC(C)C(NC(=O)CC(C[N+](C)(C)C)OC(C)=O)C(=O)OC (centres unmarked)	34%
COC(=O)C(CC(C)C)NC(=O)CC(C[N+](C)(C)C)OC(C)=O (centres unmarked)	28%
CCC(=O)OC(CC(=O)NC(C(=O)OC)C(C)C)C[N+](C)(C)C (centres unmarked)	75%

Same assay, conditions: Mus musculus, ip, 0.5 h; mice, 35 mg/kg i.p.; control 850 ± 65 in 30 min; read-out: Spontaneous motility, % increase versus controls

SMILES	change in vivo at 35 mg/kg
COC(=O)C(NC(=O)CC(C[N+](C)(C)C)OC(C)=O)C(C)C (centres unmarked)	50%

Same assay, conditions: Mus musculus, ip, 0.5 h; mice, 50 mg/kg i.p.; control 850 ± 65 in 30 min; read-out: Spontaneous motility, % increase versus controls

SMILES	change in vivo at 50 mg/kg
CCOC(=O)CC(O)CNC(=O)CC(C[N+](C)(C)C)OC(C)=O (centres unmarked)	30%
CCC(=O)OC(CC(=O)NC(CCC(=O)OC)C(=O)OC)C[N+](C)(C)C (centres unmarked)	25%

Same assay, conditions: Mus musculus, ip, 0.5 h; mice, 100 mg/kg i.p.; control 850 ± 65 in 30 min; read-out: Spontaneous motility, % increase versus controls

SMILES	change in vivo at 100 mg/kg
CCC(=O)OC(CC(=O)NC(C(=O)OC)C(C)CC)C[N+](C)(C)C (centres unmarked)	35%

Test system: not listed separately
Experiment: Interaction with barbiturates (EVIPAN, loss of righting reflex)
Assay type: in vivo
Conditions: Mus musculus, ip; mice, 40 mg/kg i.p. (head), EVIPAN 75 mg/kg; read-out: Barbituric interaction, % reduction of RR (righting reflex) loss

SMILES	inhibition in vivo at 40 mg/kg
CCC(C)C(NC(=O)CC(C[N+](C)(C)C)OC(C)=O)C(=O)OC (centres unmarked)	35%

Same assay, conditions: Mus musculus, ip; mice, 50 mg/kg i.p. (head), EVIPAN 75 mg/kg; read-out: Barbituric interaction, % reduction of RR (righting reflex) loss

SMILES	inhibition in vivo at 50 mg/kg
COC(=O)C(NC(=O)CC(C[N+](C)(C)C)OC(C)=O)C(C)C (centres unmarked)	40%
COC(=O)C(CC(C)C)NC(=O)CC(C[N+](C)(C)C)OC(C)=O (centres unmarked)	35%
CCOC(=O)CC(O)CNC(=O)CC(C[N+](C)(C)C)OC(C)=O (centres unmarked)	25%
CCC(=O)OC(CC(=O)NC(C(=O)OC)C(C)C)C[N+](C)(C)C (centres unmarked)	58%
CCC(=O)OC(CC(=O)NC(CCC(=O)OC)C(=O)OC)C[N+](C)(C)C (centres unmarked)	50%

Same assay, conditions: Mus musculus, ip; mice, 100 mg/kg i.p. (head), EVIPAN 75 mg/kg; read-out: Barbituric interaction, % reduction of RR (righting reflex) loss

SMILES	inhibition in vivo at 100 mg/kg
CCC(=O)OC(CC(=O)NC(C(=O)OC)C(C)CC)C[N+](C)(C)C (centres unmarked)	27%
